# Data: ChEMBL document CHEMBL3885881, “DrugMatrix”
# Experiments:
# [1] = organism: Rattus norvegicus; assay: DrugMatrix - Regimen: Daily Repeat; format: toxicity, organism-based, Sprague-Dawley; design: regimen Daily Repeat, gender Male, age 6-8 weeks; settings: in vivo, po, 75 mg/kg, route oral GAVAGE, dose level High, vehicle .5 % CMC
# [2] = organism: Rattus norvegicus; format: toxicity, organism-based, Sprague-Dawley; settings: in vivo, po, 75 mg/kg, 24 h, route oral GAVAGE, dose level High, time 1 day, vehicle .5 % CMC
# Description: DrugMatrix - Regimen: Single
# [3] = […], tissue Plasma, time 14 day
compound,measurement,setting,value
COc1ccc(C2CNC(=O)C2)cc1OC1CCCC1 (centres undefined) [ROLIPRAM],URIC ACID,"[1]; 120 h, tissue Plasma, time 5 day",1.3 mg/dL
same,ABSOLUTE BASOPHIL,"[1]; […], tissue Blood, time 14 day",0 CELLS/uL
same,ABSOLUTE EOSINOPHIL,"[1]; […], tissue Blood, time 14 day",252.2 CELLS/uL
same,ABSOLUTE LYMPHOCYTE,"[1]; […], tissue Blood, time 14 day",9667.6 CELLS/uL
same,ABSOLUTE MONOCYTE,"[1]; […], tissue Blood, time 14 day",605.6 CELLS/uL
same,ABSOLUTE SEGMENTED NEUTROPHIL,"[1]; […], tissue Blood, time 14 day",4994.6 CELLS/uL
same,BASOPHIL,"[1]; […], tissue Blood, time 14 day",0%
same,EOSINOPHIL,"[1]; […], tissue Blood, time 14 day",1.6%
same,ERYTHROCYTE COUNT,"[1]; […], tissue Blood, time 14 day",6.09 x10E6/uL
same,HEMATOCRIT,"[1]; […], tissue Blood, time 14 day",35.84%
same,HEMOGLOBIN,"[1]; […], tissue Blood, time 14 day",13.22 G/DL
same,LEUKOCYTE COUNT,"[1]; […], tissue Blood, time 14 day",15.52 x10E3/uL
same,LYMPHOCYTE,"[1]; […], tissue Blood, time 14 day",69.8%
same,MEAN CORPUSCULAR HEMOGLOBIN,"[1]; […], tissue Blood, time 14 day",21.78 pg
same,MEAN CORPUSCULAR HEMOGLOBIN CONCENTRATION,"[1]; […], tissue Blood, time 14 day",36.88 G/DL
same,MEAN CORPUSCULAR VOLUME,"[1]; […], tissue Blood, time 14 day",59 fL
same,MONOCYTE,"[1]; […], tissue Blood, time 14 day",3.4%
same,NEUTROPHIL,"[1]; […], tissue Blood, time 14 day",25.2%
same,NUCLEATED RED BLOOD CELLS,"[1]; […], tissue Blood, time 14 day",0 /100WBC
same,PLATELET COUNT,"[1]; […], tissue Blood, time 14 day",1123.6 x10E3/uL
same,ALANINE AMINOTRANSFERASE,[1]; [3],56 u/L
same,ALBUMIN,[1]; [3],3.84 G/DL
same,ALKALINE PHOSPHATASE,[1]; [3],286.6 u/L
same,ASPARTATE AMINOTRANSFERASE,[1]; [3],76.6 u/L
same,BLOOD UREA NITROGEN,[1]; [3],15.4 mg/dL
same,CARBON DIOXIDE,[1]; [3],31.8 mmol/L
same,CHLORIDE,[1]; [3],104 MEQ/L
same,CHOLESTEROL,[1]; [3],55.8 mg/dL
same,CREATININE,[1]; [3],0.19 mg/dL
same,GLUCOSE,[1]; [3],131.8 mg/dL
same,LACTATE DEHYDROGENASE,[1]; [3],80.4 u/L
same,LIPASE,[1]; [3],9 u/L
same,PHOSPHORUS,[1]; [3],9.08 mg/dL
same,POTASSIUM,[1]; [3],5.55 MEQ/L
same,SODIUM,[1]; [3],149.03 MEQ/L
same,TOTAL BILIRUBIN,[1]; [3],0.16 mg/dL
same,TOTAL PROTEIN,[1]; [3],5.98 G/DL
same,URIC ACID,[1]; [3],0.64 mg/dL
same,ABSOLUTE EOSINOPHIL,[2]; tissue Blood,109.33 CELLS/uL
same,ABSOLUTE LYMPHOCYTE,[2]; tissue Blood,7018.33 CELLS/uL
same,ABSOLUTE MONOCYTE,[2]; tissue Blood,257 CELLS/uL
same,ABSOLUTE SEGMENTED NEUTROPHIL,[2]; tissue Blood,1082 CELLS/uL
same,BASOPHIL,[2]; tissue Blood,0%
same,EOSINOPHIL,[2]; tissue Blood,1.33%
same,ERYTHROCYTE COUNT,[2]; tissue Blood,5.95 x10E6/uL
same,HEMATOCRIT,[2]; tissue Blood,37%
same,HEMOGLOBIN,[2]; tissue Blood,13.5 G/DL
same,LEUKOCYTE COUNT,[2]; tissue Blood,8.47 x10E3/uL
same,LYMPHOCYTE,[2]; tissue Blood,83.33%
same,MEAN CORPUSCULAR HEMOGLOBIN,[2]; tissue Blood,22.7 pg
same,MEAN CORPUSCULAR HEMOGLOBIN CONCENTRATION,[2]; tissue Blood,36.47 G/DL
same,MEAN CORPUSCULAR VOLUME,[2]; tissue Blood,62.17 fL
same,MONOCYTE,[2]; tissue Blood,3%
same,NEUTROPHIL,[2]; tissue Blood,12.33%
same,NUCLEATED RED BLOOD CELLS,[2]; tissue Blood,0 /100WBC
same,PLATELET COUNT,[2]; tissue Blood,1249.33 x10E3/uL
same,ALANINE AMINOTRANSFERASE,[2]; tissue Plasma,29 u/L
same,ALBUMIN,[2]; tissue Plasma,4.47 G/DL
same,ALKALINE PHOSPHATASE,[2]; tissue Plasma,403.67 u/L
same,ASPARTATE AMINOTRANSFERASE,[2]; tissue Plasma,74.67 u/L
same,BLOOD UREA NITROGEN,[2]; tissue Plasma,13.33 mg/dL
same,CARBON DIOXIDE,[2]; tissue Plasma,34.67 mmol/L
same,CHLORIDE,[2]; tissue Plasma,103 MEQ/L
same,CHOLESTEROL,[2]; tissue Plasma,69.67 mg/dL
same,CREATININE,[2]; tissue Plasma,0.18 mg/dL
same,GLUCOSE,[2]; tissue Plasma,144.33 mg/dL
same,LACTATE DEHYDROGENASE,[2]; tissue Plasma,95.67 u/L
same,LIPASE,[2]; tissue Plasma,8.67 u/L
same,PHOSPHORUS,[2]; tissue Plasma,11.1 mg/dL
same,POTASSIUM,[2]; tissue Plasma,5.46 MEQ/L
same,SODIUM,[2]; tissue Plasma,151.33 MEQ/L
same,TOTAL BILIRUBIN,[2]; tissue Plasma,0.1 mg/dL
same,TOTAL PROTEIN,[2]; tissue Plasma,6.4 G/DL
same,URIC ACID,[2]; tissue Plasma,1.17 mg/dL
